Where “and” joins values, the source holds several entries; their conditions need not be identical. Equal values may be shown once.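 Assay format: 96-well plates, 48-hour exposure. At the GI50, growth is halved. TGI: total growth inhibition.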 Where a SMILES comes first, the peptide text is derived from it. [ ]: non-standard residue; d: D form. The star is where a group is joined. ξ: configuration not given here. X6 = FC(F)(F)c1cc(NC(=S)*)cc(C(F)(F)F)c1; ξF = NC(Cc1ccccc1)C(=O)O
Legend:
Assay in all cases: inhibition of tumour cell growth, NCI panel, 48 h
786-0 renal = tested on: 786-0 renal
CCRF-CEM leukemia = tested on: CCRF-CEM leukemia
HOP-92 NSCLC = tested on: HOP-92 NSCLC
M14 melanoma = tested on: M14 melanoma
OVCAR-3 ovarian = tested on: OVCAR-3 ovarian
RXF 393 renal = tested on: RXF 393 renal
SNB-75 CNS = tested on: SNB-75 CNS
SR leukemia = tested on: SR leukemia
TK-10 renal = tested on: TK-10 renal
UO-31 renal = tested on: UO-31 renal

| Structure (SMILES) | GI50 (786-0 renal) [µM] | TGI (786-0 renal) [µM] | GI50 (CCRF-CEM leukemia) [µM] | TGI (CCRF-CEM leukemia) | GI50 (HOP-92 NSCLC) [µM] | TGI (HOP-92 NSCLC) [µM] | GI50 (M14 melanoma) | TGI (M14 melanoma) | GI50 (OVCAR-3 ovarian) [µM] | TGI (OVCAR-3 ovarian) | GI50 (RXF 393 renal) [µM] | TGI (RXF 393 renal) [µM] | GI50 (SNB-75 CNS) [µM] | TGI (SNB-75 CNS) [µM] | GI50 (SR leukemia) | TGI (SR leukemia) | GI50 (TK-10 renal) [µM] | TGI (TK-10 renal) [µM] | GI50 (UO-31 renal) [µM] | TGI (UO-31 renal) |
| --- | --- | --- | --- | --- | --- | --- | --- | --- | --- | --- | --- | --- | --- | --- | --- | --- | --- | --- | --- | --- |
| CC/C=C\CCC/C=C1/C(=O)C=C[C@@H]1C/C=C\CCCC(=O)OC | 3.74 | 11.4 | 2.57 | 8.32 µM | 9.77 | 23.6 | 3.17 µM | 10.1 µM | 3.39 | 11.8 µM | 2.6 | 6.02 | 13.7 | 28.5 | 2.73 µM | 9.22 µM | 7.61 | 20.1 | 2.04 | 5.15 µM |
| CC(C)CCC[C@@H](C)[C@H]1CC[C@H]2[C@@H]3CC=C4C[C@@H](C(C(=O)O)C(=O)O)CC[C@]4(C)[C@H]3CC[C@]12C | 0.288 | 2.51 | 0.112 | 0.913 µM | 0.307 | 0.904 | 0.186 µM | 1.76 µM | 0.121 | 0.298 µM | 0.192 | 0.662 | 0.166 | 1.47 | 0.135 µM | 1.63 µM | 0.165 | 0.632 | 0.137 | 0.467 µM |
| NC(=O)c1cccc2cn(-c3ccc([C@@H]4CCCNC4)cc3)nc12 | 16.2 | 33 | 5.54 | 97.7 µM | 21.5 | 89.9 | 10.7 µM | 26.3 µM | 14.8 | 31.6 µM | 13.5 | 27.1 | 11.8 | 25.5 | 1.94 µM | 12.5 µM | 24.1 | 63.2 | 11.3 | 25.2 µM |
| CCOc1ccc(NC(=O)C(=O)CC(=O)c2c[n+](=O)c3cc(C)c(C)cc3n2[O-])cc1 |  | > 100 |  | > 100 µM |  | > 100 |  | > 100 µM |  | > 100 µM |  | > 100 |  | > 100 |  | > 100 µM |  | > 100 |  | > 100 µM |
| O=C1C2C(C(=O)N1OS(=O)(=O)c1ccccc1)N(Cc1ccccc1)C(=O)N2Cc1ccccc1 (centres undefined) |  | > 100 |  | > 100 µM |  | > 100 |  | > 100 µM |  | > 100 µM |  | > 100 |  | > 100 |  | > 100 µM |  | > 100 |  | > 100 µM |
| CCCCCCCCCCCCCCCCCC(CCCCCCCCCCCCCCCCC)OP(=O)(O)O |  | > 100 |  | > 100 µM |  | > 100 |  | > 100 µM |  | > 100 µM |  | > 100 |  | > 100 |  | > 100 µM |  | > 100 |  | > 100 µM |
| COC(=O)[C@@H]1[C@H](O)[C@H](C)[C@H](O)[C@@](C)(O)/C=C\C=C(C)C(=O)Nc2c(C)c(OC(C)=O)c3c(c2O)C(=O)C(C)=C2OCOC(=C23)C(C)=C[C@@](C)(O)[C@H](O)[C@@H](C)[C@H]1OC(C)=O |  | > 100 | 12.8 | > 100 µM and 66.9 µM and 47.6 µM |  | > 100 | > 100 µM and 21 µM and 29.1 µM | > 100 µM and 66.9 µM and 86.5 µM | 56.5 | 87.6 µM and 66.9 µM and > 100 µM |  | > 100 |  | > 100 | 58 µM and 24.3 µM and 28.4 µM | > 100 µM and 63.8 µM and 89 µM |  | > 100 |  | > 100 µM and 66.9 µM |
| O=C1C(=O)N(c2ccc(Cl)cc2Cl)C(=O)C(=O)C1c1nc2ccccc2s1 |  | > 100 |  | 88.9 µM |  | > 100 |  | > 100 µM |  | > 100 µM |  | > 100 |  | 81.8 |  | 79.2 µM |  | > 100 |  | > 100 µM |
| CC1=C(C(=O)NCc2ccccc2)C(/C=C/c2ccccc2)C(C(=O)NCc2ccccc2)=C(C)N1 |  | > 100 |  | > 100 µM |  | > 100 |  | > 100 µM |  | > 100 µM |  | > 100 |  | > 100 |  | > 100 µM |  | > 100 |  | > 100 µM |
| COC1=CC(=O)c2nc(-c3ccncc3)[nH]c2C1=O | > 100 | > 100 | > 100 | > 100 µM | 31.4 | > 100 | > 100 µM | > 100 µM | > 100 | > 100 µM | > 100 | > 100 | 88.3 | > 100 | > 100 µM | > 100 µM | > 100 | > 100 | 86.7 | > 100 µM |
| COC(=O)[C@@H](NC(=O)CNC(=O)[C@H]1CCCN1C(=O)C(Cc1ccccc1)NC(=S)Nc1cc(C(F)(F)F)cc(C(F)(F)F)c1)C(C)C (some centres undefined) (X6-[ξF][dP]GV-OMe) | 2.12 | 4.34 | 3.17 | 35.1 µM | 1.95 | 6.37 | 3.33 µM | 10.5 µM | 2.96 | 8.48 µM | 1.95 | 3.5 | 1.52 | 3.49 | 2.57 µM | 8.58 µM | 4.45 | 18.8 | 2.91 | 13.9 µM |

— PubChem BioAssay (NCI)
